In PubChem BioAssay (NCI):
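Interpolation was linear, between the two tested concentrations surrounding the appropriate level; five concentrations were tested over 48 hours in 96-well plates. TGI marks complete inhibition of growth.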

Columns and labels:
Test in all cases: NCI anticancer screen, dose series, 48 h
RXF 393 renal = system: RXF 393 renal
HCC-2998 colon = system: HCC-2998 colon
SNB-19 CNS = system: SNB-19 CNS
TK-10 renal = system: TK-10 renal
MOLT-4 leukemia = system: MOLT-4 leukemia
OVCAR-4 ovarian = system: OVCAR-4 ovarian
M14 melanoma = system: M14 melanoma
K-562 leukemia = system: K-562 leukemia
KM12 colon = system: KM12 colon
NCI-H460 lung = system: NCI-H460 lung
UO-31 renal = system: UO-31 renal
CAKI-1 renal = system: CAKI-1 renal
IGROV1 ovarian = system: IGROV1 ovarian
NCI-H522 lung = system: NCI-H522 lung
COLO 205 colon = system: COLO 205 colon
SNB-78 CNS = system: SNB-78 CNS
MALME-3M melanoma = system: MALME-3M melanoma
RXF-631 renal = system: RXF-631 renal
OVCAR-8 ovarian = system: OVCAR-8 ovarian
SF-295 CNS = system: SF-295 CNS
SK-MEL-2 melanoma = system: SK-MEL-2 melanoma
CCRF-CEM leukemia = system: CCRF-CEM leukemia
SF-268 CNS = system: SF-268 CNS
SW-620 colon = system: SW-620 colon
LXFL 529 NSCLC = system: LXFL 529 NSCLC
SR leukemia = system: SR leukemia
A498 renal = system: A498 renal
HCT-116 colon = system: HCT-116 colon
SF-539 CNS = system: SF-539 CNS
M19-MEL melanoma = system: M19-MEL melanoma
U251 CNS = system: U251 CNS
OVCAR-5 ovarian = system: OVCAR-5 ovarian
SNB-75 CNS = system: SNB-75 CNS
HCT-15 colon = system: HCT-15 colon
DMS 114 small cell lung = system: DMS 114 small cell lung
EKVX NSCLC = system: EKVX NSCLC
HT29 colon = system: HT29 colon
A549 NSCLC = system: A549 NSCLC
RPMI-8226 leukemia = system: RPMI-8226 leukemia
DLD-1 colon = system: DLD-1 colon
KM20L2 colon = system: KM20L2 colon
SN12C renal = system: SN12C renal
HOP-62 NSCLC = system: HOP-62 NSCLC
UACC-257 melanoma = system: UACC-257 melanoma
NCI-H23 lung = system: NCI-H23 lung
HOP-92 NSCLC = system: HOP-92 NSCLC
DMS 273 small cell lung = system: DMS 273 small cell lung
OVCAR-3 ovarian = system: OVCAR-3 ovarian
ACHN renal = system: ACHN renal
NCI-H226 lung = system: NCI-H226 lung
UACC-62 melanoma = system: UACC-62 melanoma
HL-60(TB) leukemia = system: HL-60(TB) leukemia
SK-OV-3 ovarian = system: SK-OV-3 ovarian
LOX IMVI melanoma = system: LOX IMVI melanoma
786-0 renal = system: 786-0 renal
SK-MEL-28 melanoma = system: SK-MEL-28 melanoma
HOP-18 NSCLC = system: HOP-18 NSCLC
SK-MEL-5 melanoma = system: SK-MEL-5 melanoma
XF 498 CNS = system: XF 498 CNS

Measured: TGI

Cc1ccccc1NC(=O)C(=O)CC(=O)c1sc(-n2nc(-c3ccccc3)cc2-c2ccccc2)nc1C
not listed: SK-MEL-28 melanoma | HOP-18 NSCLC | SK-MEL-5 melanoma | XF 498 CNS
> 100 µM: all other assays above

CC1(C)O[C@@H](CCl)C[C@@H](C#N)O1
not listed: RXF-631 renal | LXFL 529 NSCLC | HCT-15 colon | SN12C renal | XF 498 CNS
> 100 µM: all other assays above

COc1ccc(/C(C#N)=C2/O/C(=N/N)C(c3ccc(OC)c(OC)c3)C2=O)cc1OC (configuration not stated)
not listed: RXF 393 renal | HCC-2998 colon | SNB-19 CNS | OVCAR-4 ovarian | NCI-H460 lung | COLO 205 colon | RXF-631 renal | OVCAR-8 ovarian | A498 renal | OVCAR-5 ovarian | DMS 114 small cell lung | HOP-62 NSCLC | HOP-18 NSCLC
> 100 µM: all other assays above

CN(C)CN(C)c1nc(N(C)C)nc(N(C)C)n1
not listed: RXF-631 renal | NCI-H226 lung
> 100 µM: all other assays above
